# Values quoted from earlier work in US11141509B2, “Method for loading at least two powder substances into recesses provided at a stent surface” (CID S.p.A., priority 2016, dated 2021).
# Settings: Cre8 coronary stent, Amphilimus formulation; Eurointervention 2012; 7:1087-1094
smiles,measurement,value
CO[C@H]1C[C@@H]2CC[C@@H](C)[C@@](O)(O2)C(=O)C(=O)N2CCCC[C@H]2C(=O)O[C@H]([C@H](C)C[C@@H]2CC[C@@H](O)[C@H](OC)C2)CC(=O)[C@H](C)/C=C(\C)[C@@H](O)[C@@H](OC)C(=O)[C@H](C)C[C@H](C)/C=C/C=C/C=C/1C [Sirolimus],in vivo release after coronary implantation,greater than 30 days
